Measurements as given in patent US9777000B2, “Pyrazole derivative” (MOCHIDA PHARMACEUTICAL CO., LTD., priority 2013, dated 2017).

target: human PDE10 (Homo sapiens (Human), UniProt Q9Y233); test: Evaluation of enzyme inhibitory activity: human PDE10 inhibitory effect (IMAP TR-FRET); format: biochemical; settings: cAMP substrate
Summary of the method: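 IMAP TR-FRET assay: PDE10 (diluted to 2 ng/mL) was preincubated 5 min with compound in Tris pH 7.2, 10 mM MgCl2, 0.1% BSA, then reacted 60 min at room temperature with cAMP (diluted to 400 nM). 5′-AMP was read as 520/490 nm TR-FRET (ex 340 nm) after ≥3 h binding; IC50 was referenced to solvent (0%) and no-enzyme (100%) wells.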

Sequence of human PDE10 (Q9Y233 whole entry): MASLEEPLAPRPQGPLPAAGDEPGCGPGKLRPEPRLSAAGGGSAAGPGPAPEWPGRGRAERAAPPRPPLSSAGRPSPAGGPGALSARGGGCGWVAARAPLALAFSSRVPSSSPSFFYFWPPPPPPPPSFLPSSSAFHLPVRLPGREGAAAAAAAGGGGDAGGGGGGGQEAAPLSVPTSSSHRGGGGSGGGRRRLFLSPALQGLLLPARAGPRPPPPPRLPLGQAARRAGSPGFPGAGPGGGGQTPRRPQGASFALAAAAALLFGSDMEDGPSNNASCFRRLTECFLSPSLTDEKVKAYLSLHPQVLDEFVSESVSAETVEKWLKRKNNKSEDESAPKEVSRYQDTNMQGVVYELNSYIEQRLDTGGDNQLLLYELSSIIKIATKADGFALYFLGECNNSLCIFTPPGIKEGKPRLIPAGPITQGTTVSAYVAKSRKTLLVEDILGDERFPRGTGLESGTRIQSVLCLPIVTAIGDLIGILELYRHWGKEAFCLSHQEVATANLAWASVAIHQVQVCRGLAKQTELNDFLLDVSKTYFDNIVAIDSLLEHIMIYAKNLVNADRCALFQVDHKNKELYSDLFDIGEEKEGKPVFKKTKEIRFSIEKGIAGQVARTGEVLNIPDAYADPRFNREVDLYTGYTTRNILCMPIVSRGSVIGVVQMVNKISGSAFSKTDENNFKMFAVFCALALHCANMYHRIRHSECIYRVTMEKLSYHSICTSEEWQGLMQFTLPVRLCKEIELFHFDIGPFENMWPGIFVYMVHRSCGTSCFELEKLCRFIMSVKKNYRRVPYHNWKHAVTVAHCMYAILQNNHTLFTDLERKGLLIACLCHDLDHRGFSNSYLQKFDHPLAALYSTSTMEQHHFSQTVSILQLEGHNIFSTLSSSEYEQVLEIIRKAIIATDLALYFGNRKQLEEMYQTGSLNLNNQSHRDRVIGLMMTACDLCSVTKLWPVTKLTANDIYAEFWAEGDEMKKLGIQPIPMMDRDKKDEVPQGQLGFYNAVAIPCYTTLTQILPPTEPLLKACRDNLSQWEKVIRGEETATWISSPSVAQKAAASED

IC50, < 5 nM:
COc1ccnc(-c2cnn(C)c2C(=O)Nc2ccn3nc(N4CC[C@H](F)C4)nc3c2)c1 [Example 4.18, (S)-N-(2-(3-fluoropyrrolidin-1-yl)-[1,2,4]triazolo[1,5-a]pyridin-7-yl)-4-(4-methoxypyridin-2-yl)-1-methyl-1H-pyrazole-5-carboxamide]
Cc1cncc(-c2cnn(C)c2C(=O)Nc2ccn3nc(N4CC[C@H](F)C4)nc3c2)n1 [Example 4.19, (S)-N-(2-(3-fluoropyrrolidin-1-yl)-[1,2,4]triazolo[1,5-a]pyridin-7-yl)-1-methyl-4-(6-methylpyrazin-2-yl)-1H-pyrazole-5-carboxamide]
Cc1cccc(-c2cnn(C)c2C(=O)Nc2ccn3nc(N4CC[C@H](F)C4)nc3c2)n1 [Example 4.21, (S)-N-(2-(3-fluoropyrrolidin-1-yl)-[1,2,4]triazolo[1,5-a]pyridin-7-yl)-1-methyl-4-(6-methylpyridin-2-yl)-1H-pyrazole-5-carboxamide]
Cn1ncc(-c2nc(C(F)(F)F)cs2)c1C(=O)Nc1ccn2nc(N3CC[C@H](F)C3)nc2c1 [Example 4.22, (S)-N-(2-(3-fluoropyrrolidin-1-yl)-[1,2,4]triazolo[1,5-a]pyridin-7-yl)-1-methyl-4-(4-(trifluoromethyl)thiazol-2-yl)-1H-pyrazole-5-carboxamide]
Cc1sc(-c2cnn(C)c2C(=O)Nc2ccn3nc(N4CC[C@H](F)C4)nc3c2)nc1C(F)F [Example 4.23, (S)-4-(4-(difluoromethyl)-5-methylthiazol-2-yl)-N-(2-(3-fluoropyrrolidin-1-yl)-[1,2,4]triazolo[1,5-a]pyridin-7-yl)-1-methyl-1H-pyrazole-5-carboxamide]
Cc1cc(C)nc(-c2cnn(C)c2C(=O)Nc2cc3nc(N4CC[C@H](F)C4)nn3cc2F)c1 [Example 4.24, (S)-4-(4,6dimethylpyridin-2-yl)-N-(6-fluoro-2-(3-fluoropyrrolidin-1-yl)-[1,2,4]triazolo[1,5-a]pyridin-7-yl)-1-methyl-1H-pyrazole-5-carboxamide]
Cn1ncc(-c2nc(C(F)F)cs2)c1C(=O)Nc1ccn2nc(N3CCCC3)nc2c1 [Example 4.25, 4-(4-(difluoromethyl)thiazol-2-yl)-1-methyl-N-(2-(pyrrolidin-1-yl)-[1,2,4]triazolo[1,5-a]pyridin-7-yl)-1H-pyrazole-5-carboxamide]
Cn1ncc(-c2nc(C(F)F)c(Cl)s2)c1C(=O)Nc1ccn2nc(N3CCCC3)nc2c1 [Example 4.26, 4-(5-chloro-4-(difluoromethyl)thiazol-2-yl)-1-methyl-N-(2-(pyrrolidin-1-yl)-[1,2,4]triazolo[1,5-a]pyridin-7-yl)-1H-pyrazole-5-carboxamide]
Cn1ncc(-c2cccc(C(F)(F)F)n2)c1C(=O)Nc1ccn2nc(N3CCCC3)nc2c1 [Example 4.27, 1-methyl-N-(2-(pyrrolidin-1-yl)-[1,2,4]triazolo[1,5-a]pyridin-7-yl)-4-(6-(trifluoromethyl)pyridin-2-yl)-1H-pyrazole-5-carboxamide]
COc1ccnc(-c2cnn(C)c2C(=O)Nc2ccn3nc(N4CCCC4)nc3c2)c1 [Example 4.28, 4-(4-methoxypyridin-2-yl)-1-methyl-N-(2-(pyrrolidin-1-yl)-[1,2,4]triazolo[1,5-a]pyridin-7-yl)-1H-pyrazole-5-carboxamide]
Cc1cncc(-c2cnn(C)c2C(=O)Nc2ccn3nc(N4CCCC4)nc3c2)n1 [Example 4.29, 1-methyl-4-(6-methylpyrazin-2-yl)-N-(2-(pyrrolidin-1-yl)-[1,2,4]triazolo[1,5-a]pyridin-7-yl)-1H-pyrazole-5-carboxamide]
Cc1cccc(-c2cnn(C)c2C(=O)Nc2ccn3nc(N4CCCC4)nc3c2)n1 [Example 4.31, 1-methyl-4-(6-methylpyridin-2-yl)-N-(2-(pyrrolidin-1-yl)-[1,2,4]triazolo[1,5-a]pyridin-7-yl)-1H-pyrazole-5-carboxamide]
Cc1cc(C)nc(-c2cnn(C)c2C(=O)Nc2ccn3nc(N4CCCC4)nc3c2)c1 [Example 4.32, 4-(4,6-dimethylpyridin-2-yl)-1-methyl-N-(2-(pyrrolidin-1-yl)-[1,2,4]triazolo[1,5-a]pyridin-7-yl)-1H-pyrazole-5-carboxamide]
Cc1sc(-c2cnn(C)c2C(=O)Nc2ccn3nc(N4CCCC4)nc3c2)nc1C(F)F [Example 4.33, 4-(4-(difluoromethyl)-5-methylthiazol-2-yl)-1-methyl-N-(2-(pyrrolidin-1-yl)-[1,2,4]triazolo[1,5-a]pyridin-7-yl)-1H-pyrazole-5-carboxamide]
Cn1ncc(-c2nc(C(F)(F)F)cs2)c1C(=O)Nc1ccn2nc(N3CCCC3)nc2c1 [Example 4.34, 1-methyl-N-(2-(pyrrolidin-1-yl)-[1,2,4]triazolo[1,5-a]pyridin-7-yl)-4-(4-(trifluoromethyl)thiazol-2-yl)-1H-pyrazole-5-carboxamide]
Cc1ncc(C)c(-c2cnn(C)c2C(=O)Nc2cc3nc(N4CCCC4)nn3cc2F)n1 [Example 4.35, 4-(2,5-dimethylpyrimidin-4-yl)-N-(6-fluoro-2-(pyrrolidin-1-yl)-[1,2,4]triazolo[1,5-a]pyridin-7-yl)-1-methyl-1H-pyrazole-5-carboxamide]
C=Cc1sc(-c2cnn(C)c2C(=O)NC2CCn3nc(-c4ccccc4)nc3C2)nc1C(F)F (stereo not shown) [Example 5.5, 4-(4-(difluoromethyl)-5-vinylthiazol-2-yl)-1-methyl-N-(2-phenyl-5,6,7,8-tetrahydro-[1,2,4]triazolo[1,5-a]pyridin-7-yl)-1H-pyrazole-5-carboxamide]
CCc1sc(-c2cnn(C)c2C(=O)NC2CCn3nc(-c4ccccc4)nc3C2)nc1C(F)F (stereo not shown) [Example 5.6, 4-(4-(difluoromethyl)-5-ethylthiazol-2-yl)-1-methyl-N-(2-phenyl-5,6,7,8-tetrahydro-[1,2,4]triazolo[1,5-a]pyridin-7-yl)-1H-pyrazole-5-carboxamide]
Cc1nc(-c2cnn(C)c2C(=O)NC2CCn3nc(-c4ccccc4)nc3C2)sc1Br (stereo not shown) [Example 5.7, 4-(5-bromo-4-methylthiazol-2-yl)-1-methyl-N-(2-phenyl-5,6,7,8-tetrahydro-[1,2,4]triazolo[1,5-a]pyridin-7-yl)-1H-pyrazole-5-carboxamide]
Cn1ncc(-c2nc(C(F)F)cs2)c1C(=O)NC1CCn2nc(-c3ccccc3)nc2C1 (stereo not shown) [Example 5.17, 4-(4-(difluoromethyl)thiazol-2-yl)-1-methyl-N-(2-phenyl-5,6,7,8-tetrahydro-[1,2,4]triazolo[1,5-a]pyridin-7-yl)-1H-pyrazole-5-carboxamide]
Cn1ncc(-c2nc(C(F)F)c(Cl)s2)c1C(=O)NC1CCn2nc(-c3ccccc3)nc2C1 (stereo not shown) [Example 5.29, 4-(5-chloro-4-(difluoromethyl)thiazol-2-yl)-1-methyl-N-(2-phenyl-5,6,7,8-tetrahydro-[1,2,4]triazolo[1,5-a]pyridin-7-yl)-1H-pyrazole-5-carboxamide]
COc1ccccc1-c1nc2n(n1)CCC(NC(=O)c1c(-c3nc(C(F)F)cs3)cnn1C)C2 (stereo not shown) [Example 5.34, 4-(4-(difluoromethyl)thiazol-2-yl)-N-(2-(2-methoxyphenyl)-5,6,7,8-tetrahydro-[1,2,4]triazolo[1,5-a]pyridin-7-yl)-1-methyl-1H-pyrazole-5-carboxamide]
Cc1sc(-c2cnn(C)c2C(=O)NC2CCn3nc(-c4ccc(F)cc4)nc3C2)nc1C(F)F (stereo not shown) [Example 5.36, 4-(4-(difluoromethyl)-5-methylthiazol-2-yl)-N-(2-(4-fluorophenyl)-5,6,7,8-tetrahydro-[1,2,4]triazolo[1,5-a]pyridin-7-yl)-1-methyl-1H-pyrazole-5-carboxamide]
Cc1nc(-c2cnn(C)c2C(=O)NC2CCn3nc(N4CCCC4)nc3C2)sc1C (stereo not shown) [Example 5.45, 4-(4,5-dimethylthiazol-2-yl)-1-methyl-N-(2-(pyrrolidin-1-yl)-5,6,7,8-tetrahydro-[1,2,4]triazolo[1,5-a]pyridin-7-yl)-1H-pyrazole-5-carboxamide]
(R)-N-(6-fluoro-2-(2trifluoromethyl)pyrrolidin-1-yl)-[1,2,4]triazolo[1,5-a]pyridin-7-yl)-1-methyl-4-(6-methylpyridin-2-yl)-1H-pyrazole-5-carboxamide [Example 4.11]
